ChEMBL document CHEMBL4665865, “New series of isoxazole derivatives targeting EGFR-TK: Synthesis, molecular modeling and antitumor evaluation” (Bioorg Med Chem, 2020)

Assays:
MCF7 [1] = experiment: Induction of cell cycle arrest in human MCF7 cells assessed as cell debris at antiproliferative IC50 by PI staining based flow cytometric analysis (reference value: 1.63%); assay type: functional; conditions: time 24 hrs
DNA topoisomerase 2-beta = DNA topoisomerase 2-beta (Homo sapiens, UniProt Q02880); experiment: Inhibition of Topoisomerase II beta (unknown origin) relative to control
Chain of DNA topoisomerase 2-beta (Q02880 whole entry): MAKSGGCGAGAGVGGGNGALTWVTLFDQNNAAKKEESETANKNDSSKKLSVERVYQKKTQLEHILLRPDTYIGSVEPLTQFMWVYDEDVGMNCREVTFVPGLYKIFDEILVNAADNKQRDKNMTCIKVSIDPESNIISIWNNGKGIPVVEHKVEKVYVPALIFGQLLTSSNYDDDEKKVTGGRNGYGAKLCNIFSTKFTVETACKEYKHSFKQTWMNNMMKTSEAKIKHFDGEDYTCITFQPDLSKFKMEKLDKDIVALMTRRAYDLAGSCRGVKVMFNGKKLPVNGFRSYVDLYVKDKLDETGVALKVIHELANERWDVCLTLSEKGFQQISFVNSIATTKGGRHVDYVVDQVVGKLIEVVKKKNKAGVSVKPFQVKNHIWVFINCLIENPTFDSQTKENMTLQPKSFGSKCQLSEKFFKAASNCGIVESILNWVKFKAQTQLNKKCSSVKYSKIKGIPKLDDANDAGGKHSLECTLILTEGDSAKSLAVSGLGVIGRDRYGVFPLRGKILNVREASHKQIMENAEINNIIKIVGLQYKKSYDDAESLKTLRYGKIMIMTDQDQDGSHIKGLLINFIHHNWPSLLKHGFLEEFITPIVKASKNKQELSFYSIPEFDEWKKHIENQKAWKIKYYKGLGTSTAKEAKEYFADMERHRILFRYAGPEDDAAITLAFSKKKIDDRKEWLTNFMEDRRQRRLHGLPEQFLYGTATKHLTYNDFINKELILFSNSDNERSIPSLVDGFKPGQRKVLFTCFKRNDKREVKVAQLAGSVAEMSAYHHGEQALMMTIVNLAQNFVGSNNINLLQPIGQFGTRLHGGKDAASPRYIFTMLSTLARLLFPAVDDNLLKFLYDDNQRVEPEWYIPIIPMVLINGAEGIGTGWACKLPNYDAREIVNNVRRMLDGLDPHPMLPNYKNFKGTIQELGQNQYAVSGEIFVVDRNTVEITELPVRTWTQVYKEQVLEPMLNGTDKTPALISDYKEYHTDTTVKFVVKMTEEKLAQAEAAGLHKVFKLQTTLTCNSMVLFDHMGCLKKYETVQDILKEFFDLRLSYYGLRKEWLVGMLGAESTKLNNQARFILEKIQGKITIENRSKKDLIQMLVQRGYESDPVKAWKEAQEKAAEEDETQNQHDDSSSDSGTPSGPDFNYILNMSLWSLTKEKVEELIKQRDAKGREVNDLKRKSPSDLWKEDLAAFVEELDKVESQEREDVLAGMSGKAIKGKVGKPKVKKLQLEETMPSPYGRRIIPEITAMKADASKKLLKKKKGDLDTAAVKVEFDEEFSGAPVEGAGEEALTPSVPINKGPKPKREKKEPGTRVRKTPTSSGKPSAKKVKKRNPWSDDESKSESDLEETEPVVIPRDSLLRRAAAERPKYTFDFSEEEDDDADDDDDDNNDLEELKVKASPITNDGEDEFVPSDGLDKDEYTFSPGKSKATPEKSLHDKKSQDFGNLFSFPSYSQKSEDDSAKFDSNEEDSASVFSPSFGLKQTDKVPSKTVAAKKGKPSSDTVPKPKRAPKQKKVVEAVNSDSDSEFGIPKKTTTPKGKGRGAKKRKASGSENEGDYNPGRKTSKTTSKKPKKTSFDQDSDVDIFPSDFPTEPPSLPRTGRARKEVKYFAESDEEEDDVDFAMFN

HCT-116 [2] = experiment: Induction of apoptosis in human HCT-116 cells assessed as increase in caspase-3 level after 24 hrs by Western blot analysis relative to untreated control; assay type: functional
HepG2 [3] = experiment: Induction of cell cycle arrest in human HepG2 cells assessed as accumulation of cells at G2/M phase at antiproliferative IC50 by PI staining based flow cytometric analysis (reference value: 14.09%); assay type: functional
[4] = molecular target: Epidermal growth factor receptor (Homo sapiens, UniProt P00533); experiment: Inhibition of EGFR-TK (unknown origin) relative to control
Chain of Epidermal growth factor receptor (P00533 whole entry): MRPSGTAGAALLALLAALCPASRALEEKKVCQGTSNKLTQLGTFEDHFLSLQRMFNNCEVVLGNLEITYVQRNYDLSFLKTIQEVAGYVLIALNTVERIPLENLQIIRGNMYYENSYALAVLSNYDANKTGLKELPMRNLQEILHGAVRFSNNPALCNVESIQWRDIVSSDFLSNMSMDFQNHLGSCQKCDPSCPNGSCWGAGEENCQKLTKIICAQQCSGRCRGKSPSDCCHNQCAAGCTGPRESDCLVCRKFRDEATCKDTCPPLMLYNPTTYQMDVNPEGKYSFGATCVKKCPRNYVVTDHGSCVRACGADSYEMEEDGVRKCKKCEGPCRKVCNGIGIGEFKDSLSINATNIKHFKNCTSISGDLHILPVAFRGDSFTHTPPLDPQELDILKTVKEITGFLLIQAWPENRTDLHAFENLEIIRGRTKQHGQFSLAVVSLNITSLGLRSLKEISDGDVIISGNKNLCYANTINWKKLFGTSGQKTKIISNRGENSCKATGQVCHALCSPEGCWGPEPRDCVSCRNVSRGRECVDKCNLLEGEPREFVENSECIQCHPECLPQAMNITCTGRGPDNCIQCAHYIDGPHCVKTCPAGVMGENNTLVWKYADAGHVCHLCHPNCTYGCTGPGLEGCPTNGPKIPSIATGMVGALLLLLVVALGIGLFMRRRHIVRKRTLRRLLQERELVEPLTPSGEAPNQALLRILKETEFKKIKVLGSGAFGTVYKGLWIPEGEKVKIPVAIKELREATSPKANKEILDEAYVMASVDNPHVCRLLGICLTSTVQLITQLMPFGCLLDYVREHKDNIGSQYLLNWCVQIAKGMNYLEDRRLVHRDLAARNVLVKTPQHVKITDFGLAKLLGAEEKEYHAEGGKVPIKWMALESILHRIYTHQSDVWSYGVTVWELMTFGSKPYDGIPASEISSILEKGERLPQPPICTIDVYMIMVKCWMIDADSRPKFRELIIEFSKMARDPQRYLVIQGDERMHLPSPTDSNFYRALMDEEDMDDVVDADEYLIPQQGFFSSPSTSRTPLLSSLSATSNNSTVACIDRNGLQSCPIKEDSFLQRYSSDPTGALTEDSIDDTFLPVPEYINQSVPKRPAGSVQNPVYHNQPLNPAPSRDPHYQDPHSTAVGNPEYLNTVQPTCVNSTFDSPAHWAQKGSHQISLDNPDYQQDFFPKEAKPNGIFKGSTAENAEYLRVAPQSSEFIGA

HepG2 [5] = experiment: Induction of apoptosis in human HepG2 cells assessed as increase in Bax protein expression by Western blot analysis relative to untreated control; assay type: functional
HepG2 [6] = experiment: Induction of cell cycle arrest in human HepG2 cells assessed as aggregates at antiproliferative IC50 by PI staining based flow cytometric analysis (reference value: 1.52%); assay type: functional; conditions: time 24 hrs
MCF7 [7] = experiment: Induction of apoptosis in human MCF-7 cells assessed as increase in Bax protein expression by Western blot analysis relative to untreated control; assay type: functional
HCT-116 [8] = experiment: Induction of cell cycle arrest in human HCT-116 cells assessed as accumulation of cells at Pre-G1 phase at antiproliferative IC50 by PI staining based flow cytometric analysis (reference value: 1.19%); assay type: functional
MCF7 [9] = experiment: Induction of apoptosis in human MCF7 cells assessed as early apoptotic cells at antiproliferative IC50 incubated for 24 hrs by annexin V FITC and propidium iodide staining based flow cytometry (reference value: 0.39 %); assay type: functional
HCT-116 [10] = experiment: Induction of apoptosis in human HCT-116 cells assessed as increase in Bax protein expression by Western blot analysis relative to untreated control; assay type: functional

Compound: Cc1cc(NC2=NC(=O)/C(=C\c3c4ccccc4cc4ccccc34)S2)no1
- Activity (MCF7 [1]): 2.08%
- IC50 (DNA topoisomerase 2-beta): 130 nM
- fold change (FC) (HCT-116 [2]): 14.2
- Activity (HepG2 [3]): 36.93%
- IC50 [4]: 54 nM
- fold change (FC) (HepG2 [5]): 4.1
- Activity (HepG2 [6]): 1.55%
- fold change (FC) (MCF7 [7]): 7
- Activity (HCT-116 [8]): 22.69%
- Activity (MCF7 [9]): 6.28%
- fold change (FC) (HCT-116 [10]): 6.9
